Data taken from patent publication US6914045B2, “Glycopeptide antibiotics” (Wyeth Holdings Corporation, priority 2001, dated 2005).
≈ marks a conversion by molar mass, not a printed value.

Experiments:
[1] = system: Enterococcus faecalis (GC 6189); test: acute lethal infection in mice; format: in vivo; conditions: female CD-1 mice, intraperitoneal challenge, intravenous 30 min. after infection, 7 day survival
How it was run: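 Intraperitoneal challenge of female CD-1 mice with a bacterial dose lethal to untreated animals within 24-48 hr; single iv treatment 30 min later, 5 mice per dose level. Survival is scored at day 7 and pooled from three experiments to give the median effective dose.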

Enterococcus sp. = test: in vitro antibacterial evaluation, MIC by broth dilution; format: cell-based; conditions: broth dilution, 18 hours at 35° C.
How it was run: (§1)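 Step 1: dilute antibiotic across 64-0.06 μg/mL in Muller-Hinton II […]. Step 2: inoculate at 5×10^5 CFU/mL.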

Streptococcus sp. = test: as above; format: cell-based; conditions: broth dilution, 18 hours at 35° C.
How it was run: as §1

Escherichia coli = test: as above; format: cell-based; conditions: 18 hours at 35° C.
How it was run: as §1

Staphylococcus sp. = test: as above; format: cell-based; conditions: broth dilution, 18 hours at 35° C.
How it was run: as §1

Compound: CCC(CC)C1OCC2OC(OC3C(CO)OC(Oc4ccc(CC5NC(=O)C(C(C)c6ccccc6)NC(=O)CNC(=O)C(CO)NC(=O)C(C(O)C6CNC(=N)N6C6OC(CO)C(O)C(O)C6O)NC(=O)C(C(O)C6CNC(=N)N6)NC5=O)cc4)C(O)C3O)C(O)C(O)C2O1 (stereo not drawn) [Example 116, Cyclo[glycyl-β-methylphenylalanyl-O-[4-O-[4,6-O-(2-ethylbutylidene)hexopyranosyl]-hexopyranosyl]tyrosyl-3-(2-iminoimidazolidin-4-yl)seryl-3-(3-hexopyranosvl-2-iminoimidazolidin-4-yl)serylseryl]]
- median effective dose (ED50), Enterococcus faecalis (GC 6189) [1]: 0.46 mg/kg
- MIC Enterococcus avium (GC 4558) (Enterococcus sp.; Enterococcus avium (GC 4558)): 2 µg/mL (≈ 1.45 µM)
- MIC Enterococcus faecalis (ATCC 29212) (Enterococcus sp.; Enterococcus faecalis (ATCC 29212)): 2 µg/mL (≈ 1.45 µM)
- MIC Enterococcus faecalis (GC 2242) (Enterococcus sp.; Enterococcus faecalis (GC 2242)): 2 µg/mL (≈ 1.45 µM)
- MIC Enterococcus faecalis (GC 2691) (Enterococcus sp.; Enterococcus faecalis (GC 2691)): 2 µg/mL (≈ 1.45 µM)
- MIC Enterococcus faecalis (GC 3059) (Enterococcus sp.; Enterococcus faecalis (GC 3059)): 2 µg/mL (≈ 1.45 µM)
- MIC Enterococcus faecalis (GC 4552) (Enterococcus sp.; Enterococcus faecalis (GC 4552)): 2 µg/mL (≈ 1.45 µM)
- MIC Enterococcus faecalis (GC 4553) (Enterococcus sp.; Enterococcus faecalis (GC 4553)): 2 µg/mL (≈ 1.45 µM)
- MIC Enterococcus faecalis (GC 4554) (Enterococcus sp.; Enterococcus faecalis (GC 4554)): 2 µg/mL (≈ 1.45 µM)
- MIC Enterococcus faecalis (GC 6189) (Enterococcus sp.; Enterococcus faecalis (GC 6189)): 2 µg/mL (≈ 1.45 µM)
- MIC Enterococcus faecium (GC 2243) (Enterococcus sp.; Enterococcus faecium (GC 2243)): 2 µg/mL (≈ 1.45 µM)
- MIC Enterococcus faecium (GC 4556) (Enterococcus sp.; Enterococcus faecium (GC 4556)): 2 µg/mL (≈ 1.45 µM)
- MIC Enterococcus faecium (GC 4557) (Enterococcus sp.; Enterococcus faecium (GC 4557)): 2 µg/mL (≈ 1.45 µM)
- MIC Enterococcus faecalis (ATCC 29212) (Enterococcus sp.; strain ATCC 29212): 2 µg/mL (≈ 1.45 µM)
- MIC Enterococcus faecalis (GC 2242) (Enterococcus sp.; strain GC 2242): 2 µg/mL (≈ 1.45 µM)
- MIC Enterococcus faecium (GC 2243) (Enterococcus sp.; strain GC 2243): 2 µg/mL (≈ 1.45 µM)
- MIC Enterococcus faecalis (GC 2691) (Enterococcus sp.; strain GC 2691): 2 µg/mL (≈ 1.45 µM)
- MIC Enterococcus faecalis (GC 3059) (Enterococcus sp.; strain GC 3059): 2 µg/mL (≈ 1.45 µM)
- MIC Enterococcus faecalis (GC 4552) (Enterococcus sp.; strain GC 4552): 2 µg/mL (≈ 1.45 µM)
- MIC Enterococcus faecalis (GC 4553) (Enterococcus sp.; strain GC 4553): 2 µg/mL (≈ 1.45 µM)
- MIC Enterococcus faecalis (GC 4554) (Enterococcus sp.; strain GC 4554): 2 µg/mL (≈ 1.45 µM)
- MIC Enterococcus faecium (GC 4556) (Enterococcus sp.; strain GC 4556): 2 µg/mL (≈ 1.45 µM)
- MIC Enterococcus faecium (GC 4557) (Enterococcus sp.; strain GC 4557): 2 µg/mL (≈ 1.45 µM)
- MIC Enterococcus avium (GC 4558) (Enterococcus sp.; strain GC 4558): 2 µg/mL (≈ 1.45 µM)
- MIC Enterococcus faecalis (GC 6189) (Enterococcus sp.; strain GC 6189): 2 µg/mL (≈ 1.45 µM)
- MIC Streptococcus agalactiae (GC 4564) (Streptococcus sp.; Streptococcus agalactiae (GC 4564)): 0.25 µg/mL (≈ 0.181 µM)
- MIC Streptococcus pneumoniae (ATCC 6301) (Streptococcus sp.; Streptococcus pneumoniae (ATCC 6301)): <0.06 µg/mL
- MIC Streptococcus pneumoniae (GC 1894) (Streptococcus sp.; Streptococcus pneumoniae (GC 1894)): <0.06 µg/mL
- MIC Streptococcus pneumoniae (GC 4565) (Streptococcus sp.; Streptococcus pneumoniae (GC 4565)): <0.06 µg/mL
- MIC Streptococcus pyogenes (GC 4563) (Streptococcus sp.; Streptococcus pyogenes (GC 4563)): 0.25 µg/mL (≈ 0.181 µM)
- MIC Streptococcus pneumoniae (ATCC 6301) (Streptococcus sp.; strain ATCC 6301): <0.06 µg/mL
- MIC Streptococcus pneumoniae (GC 1894) (Streptococcus sp.; strain GC 1894): <0.06 µg/mL
- MIC Streptococcus pyogenes (GC 4563) (Streptococcus sp.; strain GC 4563): 0.25 µg/mL (≈ 0.181 µM)
- MIC Streptococcus agalactiae (GC 4564) (Streptococcus sp.; strain GC 4564): 0.25 µg/mL (≈ 0.181 µM)
- MIC Streptococcus pneumoniae (GC 4565) (Streptococcus sp.; strain GC 4565): <0.06 µg/mL
- MIC Escherichia coli (ATCC 25922) (Escherichia coli; strain ATCC 25922): 32 µg/mL (≈ 23.2 µM)
- MIC Escherichia coli (GC 4559) (Escherichia coli; strain GC 4559): 64 µg/mL (≈ 46.5 µM)
- MIC Escherichia coli (GC 4560) (Escherichia coli; strain GC 4560): 1 µg/mL (≈ 0.726 µM)
- MIC Coagulase Negative Staphylococcus (GC 4547) (Staphylococcus sp.): 1 µg/mL (≈ 0.726 µM)
- MIC Coagulase Negative Staphylococcus (GC 4548) (Staphylococcus sp.): 1 µg/mL (≈ 0.726 µM)
- MIC Coagulase Negative Staphylococcus (GC 4549) (Staphylococcus sp.): 1 µg/mL (≈ 0.726 µM)
- MIC Coagulase Negative Staphylococcus (GC 4551) (Staphylococcus sp.): 1 µg/mL (≈ 0.726 µM)
- MIC Coagulase Negative Staphylococcus (GC 6257) (Staphylococcus sp.): 0.5 µg/mL (≈ 0.363 µM)
- MIC Staphylococcus aureus (ATCC 29213) (Staphylococcus sp.): 1 µg/mL (≈ 0.726 µM)
- MIC Staphylococcus aureus (GC 1131) (Staphylococcus sp.): 1 µg/mL (≈ 0.726 µM)
- MIC Staphylococcus aureus (GC 3051) (Staphylococcus sp.): 1 µg/mL (≈ 0.726 µM)
- MIC Staphylococcus aureus (GC 3053) (Staphylococcus sp.): 1 µg/mL (≈ 0.726 µM)
- MIC Staphylococcus aureus (GC 4541) (Staphylococcus sp.): 1 µg/mL (≈ 0.726 µM)
- MIC Staphylococcus aureus (GC 4542) (Staphylococcus sp.): 0.5 µg/mL (≈ 0.363 µM)
- MIC Staphylococcus aureus (GC 4544) (Staphylococcus sp.): 1 µg/mL (≈ 0.726 µM)
- MIC Staphylococcus aureus (GC 4545) (Staphylococcus sp.): 1 µg/mL (≈ 0.726 µM)
- MIC Staphylococcus aureus-SMITH (GC 4543) (Staphylococcus sp.): 1 µg/mL (≈ 0.726 µM)
- MIC Staphylococcus haemolyticus (GC 4546) (Staphylococcus sp.): 0.5 µg/mL (≈ 0.363 µM)
- MIC Staphylococcus aureus (GC 1131) (Staphylococcus sp.; inoculum 5×10^5 CFU/mL, strain GC 1131): 1 µg/mL (≈ 0.726 µM)
- MIC Staphylococcus aureus (ATCC 29213) (Staphylococcus sp.; strain ATCC 29213): 1 µg/mL (≈ 0.726 µM)
- MIC Staphylococcus aureus (GC 3051) (Staphylococcus sp.; strain GC 3051): 1 µg/mL (≈ 0.726 µM)
- MIC Staphylococcus aureus (GC 3053) (Staphylococcus sp.; strain GC 3053): 1 µg/mL (≈ 0.726 µM)
- MIC Staphylococcus aureus (GC 4541) (Staphylococcus sp.; strain GC 4541): 1 µg/mL (≈ 0.726 µM)
- MIC Staphylococcus aureus (GC 4542) (Staphylococcus sp.; strain GC 4542): 0.5 µg/mL (≈ 0.363 µM)
- MIC Staphylococcus aureus (GC 4544) (Staphylococcus sp.; strain GC 4544): 1 µg/mL (≈ 0.726 µM)
- MIC Staphylococcus aureus (GC 4545) (Staphylococcus sp.; strain GC 4545): 1 µg/mL (≈ 0.726 µM)
- MIC Staphylococcus haemolyticus (GC 4546) (Staphylococcus sp.; strain GC 4546): 0.5 µg/mL (≈ 0.363 µM)
- MIC Coagulase Negative Staphylococcus (GC 4547) (Staphylococcus sp.; strain GC 4547): 1 µg/mL (≈ 0.726 µM)
- MIC Coagulase Negative Staphylococcus (GC 4548) (Staphylococcus sp.; strain GC 4548): 1 µg/mL (≈ 0.726 µM)
- MIC Coagulase Negative Staphylococcus (GC 4549) (Staphylococcus sp.; strain GC 4549): 1 µg/mL (≈ 0.726 µM)
- MIC Coagulase Negative Staphylococcus (GC 4551) (Staphylococcus sp.; strain GC 4551): 1 µg/mL (≈ 0.726 µM)
- MIC Coagulase Negative Staphylococcus (GC 6257) (Staphylococcus sp.; strain GC 6257): 0.5 µg/mL (≈ 0.363 µM)
- MIC Staphylococcus aureus-SMITH (GC 4543) (Staphylococcus sp.; strain SMITH GC 4543): 1 µg/mL (≈ 0.726 µM)
